Experimental data taken from paper PMC8449129, “Single tracer-based protocol for broad-spectrum kinase profiling in live cells with NanoBRET” (STAR Protocols, 2021).

Legend:
AURKC = biological target: T1, AURKC (Homo sapiens, UniProt Q9UQB9); assay: NanoBRET target engagement, Tracer K10 displacement in live HEK293 cells; format: cell-based; conditions: […] h, […] C, n = […]
T1 construct: full-length kinase, C-terminal NanoLuc fusion, transfected HEK293 cells

AXL = biological target: T2, AXL (Homo sapiens, UniProt P30530); assay: as above; format: cell-based; conditions: […] h, […] C, n = […]
T2 construct: full-length kinase, C-terminal NanoLuc fusion, transfected HEK293 cells
Source text: NanoBRET target engagement, Tracer K10 displacement in live HEK293 cells on AXL

EPHA4 = biological target: T3, EPHA4 (Homo sapiens, UniProt P54764); assay: as above; format: cell-based; conditions: […] h, […] C, n = […]
T3 construct: full-length kinase, C-terminal NanoLuc fusion, transfected HEK293 cells
Source text: NanoBRET target engagement, Tracer K10 displacement in live HEK293 cells on EPHA4

EPHA1 = biological target: T4, EPHA1 (Homo sapiens, UniProt P21709); assay: as above; format: cell-based; conditions: […] h, […] C, n = […]
T4 construct: full-length kinase, C-terminal NanoLuc fusion, transfected HEK293 cells
T4 sequence (P21709 26-976): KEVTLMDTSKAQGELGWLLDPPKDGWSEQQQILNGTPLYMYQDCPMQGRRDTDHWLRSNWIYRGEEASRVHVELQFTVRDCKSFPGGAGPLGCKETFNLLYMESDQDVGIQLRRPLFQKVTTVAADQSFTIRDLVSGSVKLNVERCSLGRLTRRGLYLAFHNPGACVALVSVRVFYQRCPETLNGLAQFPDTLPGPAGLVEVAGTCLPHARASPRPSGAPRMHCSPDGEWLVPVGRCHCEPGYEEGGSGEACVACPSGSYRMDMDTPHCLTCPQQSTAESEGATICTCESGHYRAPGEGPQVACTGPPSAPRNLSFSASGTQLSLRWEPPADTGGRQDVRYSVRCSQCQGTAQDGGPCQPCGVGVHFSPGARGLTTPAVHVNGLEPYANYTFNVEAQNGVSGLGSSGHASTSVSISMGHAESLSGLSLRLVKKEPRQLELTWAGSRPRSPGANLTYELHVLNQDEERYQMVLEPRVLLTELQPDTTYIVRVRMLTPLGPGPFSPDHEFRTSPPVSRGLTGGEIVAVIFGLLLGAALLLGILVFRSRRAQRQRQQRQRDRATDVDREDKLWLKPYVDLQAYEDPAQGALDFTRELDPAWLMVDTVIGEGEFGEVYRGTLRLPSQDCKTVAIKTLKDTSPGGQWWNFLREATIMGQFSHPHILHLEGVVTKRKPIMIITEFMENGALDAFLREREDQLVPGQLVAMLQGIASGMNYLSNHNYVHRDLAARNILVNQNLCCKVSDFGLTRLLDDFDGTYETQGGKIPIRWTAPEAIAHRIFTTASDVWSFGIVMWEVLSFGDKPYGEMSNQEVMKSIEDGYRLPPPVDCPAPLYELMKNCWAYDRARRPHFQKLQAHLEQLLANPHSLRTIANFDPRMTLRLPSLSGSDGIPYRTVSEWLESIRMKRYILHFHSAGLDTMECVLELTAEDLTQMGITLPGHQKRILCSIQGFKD
Source text: NanoBRET target engagement, Tracer K10 displacement in live HEK293 cells on EPHA1

EPHB4 = biological target: T5, EPHB4 (Homo sapiens, UniProt P54760); assay: as above; format: cell-based; conditions: […] h, […] C, n = […]
T5 construct: full-length kinase, C-terminal NanoLuc fusion, transfected HEK293 cells
T5 sequence (P54760 16-987): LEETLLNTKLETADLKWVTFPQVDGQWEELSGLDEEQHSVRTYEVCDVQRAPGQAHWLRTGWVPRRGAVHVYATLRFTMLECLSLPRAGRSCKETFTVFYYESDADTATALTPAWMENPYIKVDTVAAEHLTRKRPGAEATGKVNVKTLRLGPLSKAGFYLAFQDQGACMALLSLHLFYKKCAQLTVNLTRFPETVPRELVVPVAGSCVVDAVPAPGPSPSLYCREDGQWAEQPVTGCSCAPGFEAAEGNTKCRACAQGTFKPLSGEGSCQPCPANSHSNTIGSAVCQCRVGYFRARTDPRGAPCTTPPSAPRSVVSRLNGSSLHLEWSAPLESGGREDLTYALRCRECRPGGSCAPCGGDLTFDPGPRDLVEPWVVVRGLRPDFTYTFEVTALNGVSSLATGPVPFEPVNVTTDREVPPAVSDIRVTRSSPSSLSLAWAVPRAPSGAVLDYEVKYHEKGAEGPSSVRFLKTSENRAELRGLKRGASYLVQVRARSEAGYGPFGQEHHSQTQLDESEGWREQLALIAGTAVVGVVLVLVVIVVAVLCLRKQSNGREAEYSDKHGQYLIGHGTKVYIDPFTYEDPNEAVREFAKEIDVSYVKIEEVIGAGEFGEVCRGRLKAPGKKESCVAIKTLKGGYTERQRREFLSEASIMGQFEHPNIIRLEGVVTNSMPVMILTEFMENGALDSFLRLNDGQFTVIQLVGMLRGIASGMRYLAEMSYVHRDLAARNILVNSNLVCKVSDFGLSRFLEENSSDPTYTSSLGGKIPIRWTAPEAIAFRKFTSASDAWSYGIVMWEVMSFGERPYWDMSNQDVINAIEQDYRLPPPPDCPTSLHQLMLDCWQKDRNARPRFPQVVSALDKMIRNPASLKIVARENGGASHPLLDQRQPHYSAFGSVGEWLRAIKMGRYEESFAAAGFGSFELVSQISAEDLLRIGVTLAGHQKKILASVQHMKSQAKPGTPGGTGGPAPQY
Source text: NanoBRET target engagement, Tracer K10 displacement in live HEK293 cells on EPHB4

EPHB1 = biological target: T6, EPHB1 (Homo sapiens, UniProt P54762); assay: as above; format: cell-based; conditions: […] h, […] C, n = […]
T6 construct: full-length kinase, C-terminal NanoLuc fusion, transfected HEK293 cells
T6 sequence (P54762 18-984): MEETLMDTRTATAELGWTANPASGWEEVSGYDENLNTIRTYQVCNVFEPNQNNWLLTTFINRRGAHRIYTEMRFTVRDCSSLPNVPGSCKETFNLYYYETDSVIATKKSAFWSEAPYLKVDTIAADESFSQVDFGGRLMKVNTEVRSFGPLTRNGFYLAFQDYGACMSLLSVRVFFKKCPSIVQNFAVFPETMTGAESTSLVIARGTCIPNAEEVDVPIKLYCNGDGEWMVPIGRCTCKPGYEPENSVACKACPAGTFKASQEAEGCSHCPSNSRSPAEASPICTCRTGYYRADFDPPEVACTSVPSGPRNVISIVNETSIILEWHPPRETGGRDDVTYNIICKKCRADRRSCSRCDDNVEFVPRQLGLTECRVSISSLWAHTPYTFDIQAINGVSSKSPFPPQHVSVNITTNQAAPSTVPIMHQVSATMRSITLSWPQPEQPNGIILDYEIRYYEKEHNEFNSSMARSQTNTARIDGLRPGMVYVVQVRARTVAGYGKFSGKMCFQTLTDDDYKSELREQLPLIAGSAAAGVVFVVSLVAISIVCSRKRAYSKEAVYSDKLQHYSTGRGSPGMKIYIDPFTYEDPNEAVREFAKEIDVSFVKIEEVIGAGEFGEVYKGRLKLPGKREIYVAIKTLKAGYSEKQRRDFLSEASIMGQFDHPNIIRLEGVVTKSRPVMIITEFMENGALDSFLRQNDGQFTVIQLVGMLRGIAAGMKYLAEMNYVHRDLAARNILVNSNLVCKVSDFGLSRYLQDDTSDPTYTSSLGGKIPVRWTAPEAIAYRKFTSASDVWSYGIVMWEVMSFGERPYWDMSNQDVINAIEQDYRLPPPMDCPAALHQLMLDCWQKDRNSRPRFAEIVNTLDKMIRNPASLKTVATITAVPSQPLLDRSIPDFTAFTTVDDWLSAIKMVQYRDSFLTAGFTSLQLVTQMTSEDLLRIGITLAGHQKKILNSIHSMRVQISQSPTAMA
Source text: NanoBRET target engagement, Tracer K10 displacement in live HEK293 cells on EPHB1

AAK1 = AAK1 (Homo sapiens, UniProt Q2M2I8); assay: cell-based; design: NanoBRET live-cell target engagement; % occupancy from displacement of tracer K10 on NanoLuc-kinase fusions, mean n=3; conditions: HEK293, read-out: % inhibition
Protocol: (§1) • 18. Prepare 10× test compounds in OptiMEM • a. Dilute the test compound to 1000× in DMSO (or the test compound solvent). […] Add 10μL per well of 10× test compound or 10μL of the DMSO control to the 96-well plates containing cells with 1× tracer. Mix on orbital shaker for 15 s at 900 rpm. • 20. Incubate the plate at 37°C + 5% CO2 incubator for 2hr. Allow plate to cool to RT for ∼15 min, then proceed to NanoBRET^TM Assay section below. • 21. Immediately before the BRET measurements, prepare 3× Complete NanoBRET^TM Nano-Glo® Substrate in OptiMEM without serum or phenol red. […] Mix gently by inverting 5–10 times in a conical tube. (The final concentration of Extracellular NanoLuc inhibitor in the 3× solution is 60 μM, for a working concentration of 20 μM.) • a. Note: 3× solutions should be used within 1.5 h after preparation. • 22. […] Incubate 2–3 min at RT. Following addition of NanoBRET^TM Nano-Glo® Substrate, measure donor emission (e.g., 450 nm) and acceptor emission (e.g., 610 nm or 630 nm) using a NanoBRET™-compatible luminometer. Fractional occupancy Quantitation • 2. Determine Fractional Occupancy with the following equation; % Occupancy = [1 – (X – Z)/( Y – Z)]∗100 • Where: • X = BRET in the presence of the test compound and tracer, • Y = BRET in the presence of the 100% BRET Control (Tracer + DMSO) • Z = BRET for the Zero BRET Control, e.g., • a. BRET from the NanoLuc Control Vector • b. BRET from Kinase/NanoLuc fusion + saturating dose of control test compound.

CLK4 = CLK4 (Homo sapiens, UniProt Q9HAZ1); assay: cell-based; design: NanoBRET live-cell target engagement; % occupancy from displacement of tracer K10 on NanoLuc-kinase fusions, mean n=3; conditions: HEK293, read-out: % inhibition
Protocol: as §1

CSNK2A1 = CSNK2A1 (Homo sapiens, UniProt P68400); assay: cell-based; design: NanoBRET live-cell target engagement; % occupancy from displacement of tracer K10 on NanoLuc-kinase fusions, mean n=3; conditions: HEK293, read-out: % inhibition
Chain of CSNK2A1 (P68400 whole entry, the tested form may be a part): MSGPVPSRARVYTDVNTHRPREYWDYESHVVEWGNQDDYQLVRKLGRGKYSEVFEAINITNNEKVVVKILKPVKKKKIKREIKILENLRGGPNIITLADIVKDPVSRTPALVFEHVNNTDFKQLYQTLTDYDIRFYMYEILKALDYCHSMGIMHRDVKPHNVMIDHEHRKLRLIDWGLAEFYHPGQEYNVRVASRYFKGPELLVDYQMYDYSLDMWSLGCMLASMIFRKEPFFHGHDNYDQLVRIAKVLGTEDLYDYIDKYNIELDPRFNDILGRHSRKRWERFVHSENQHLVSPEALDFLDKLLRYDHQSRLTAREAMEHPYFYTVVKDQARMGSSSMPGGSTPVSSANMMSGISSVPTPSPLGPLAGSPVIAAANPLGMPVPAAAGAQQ
Protocol: as §1

FGFR3 = FGFR3 (Homo sapiens, UniProt P22607); assay: cell-based; design: NanoBRET live-cell target engagement; % occupancy from displacement of tracer K10 on NanoLuc-kinase fusions, mean n=3; conditions: HEK293, read-out: % inhibition
Protocol: as §1

HIPK4 = HIPK4 (Homo sapiens, UniProt Q8NE63); assay: cell-based; design: NanoBRET live-cell target engagement; % occupancy from displacement of tracer K10 on NanoLuc-kinase fusions, mean n=3; conditions: HEK293, read-out: % inhibition
Chain of HIPK4 (Q8NE63 whole entry, the tested form may be a part): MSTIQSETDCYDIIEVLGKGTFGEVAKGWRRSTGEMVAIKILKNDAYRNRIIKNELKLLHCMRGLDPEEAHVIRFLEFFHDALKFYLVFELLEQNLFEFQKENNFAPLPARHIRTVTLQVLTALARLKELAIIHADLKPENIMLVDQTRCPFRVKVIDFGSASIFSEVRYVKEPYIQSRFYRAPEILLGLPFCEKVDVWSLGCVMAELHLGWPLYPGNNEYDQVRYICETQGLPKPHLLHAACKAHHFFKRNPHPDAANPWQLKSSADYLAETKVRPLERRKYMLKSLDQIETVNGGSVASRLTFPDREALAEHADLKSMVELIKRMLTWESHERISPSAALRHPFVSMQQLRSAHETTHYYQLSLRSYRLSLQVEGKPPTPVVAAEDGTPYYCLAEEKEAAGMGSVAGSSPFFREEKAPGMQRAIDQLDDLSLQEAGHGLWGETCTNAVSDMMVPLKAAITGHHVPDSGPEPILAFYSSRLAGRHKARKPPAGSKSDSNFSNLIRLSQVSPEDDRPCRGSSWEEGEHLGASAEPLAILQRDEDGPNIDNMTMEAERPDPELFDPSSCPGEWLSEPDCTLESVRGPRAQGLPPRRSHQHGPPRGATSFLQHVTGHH
Protocol: as §1

JNK3 = biological target: T7, JNK3 (Homo sapiens, UniProt P53779); assay: cell-based; design: NanoBRET live-cell target engagement; % occupancy from displacement of tracer K10 on NanoLuc-kinase fusions, mean n=3; conditions: HEK293, read-out: % inhibition
T7 construct: gene MAPK10
Protocol: as §1

MAP3K11 = MAP3K11 (Homo sapiens, UniProt Q16584); assay: cell-based; design: NanoBRET live-cell target engagement; % occupancy from displacement of tracer K10 on NanoLuc-kinase fusions, mean n=3; conditions: HEK293, read-out: % inhibition
Protocol: as §1

MAPK8 = MAPK8 (Homo sapiens, UniProt P45983); assay: cell-based; design: NanoBRET live-cell target engagement; % occupancy from displacement of tracer K10 on NanoLuc-kinase fusions, mean n=3; conditions: HEK293, read-out: % inhibition
Protocol: as §1

MAPK9 = MAPK9 (Homo sapiens, UniProt P45984); assay: cell-based; design: NanoBRET live-cell target engagement; % occupancy from displacement of tracer K10 on NanoLuc-kinase fusions, mean n=3; conditions: HEK293, read-out: % inhibition
Chain of MAPK9 (P45984 whole entry, the tested form may be a part): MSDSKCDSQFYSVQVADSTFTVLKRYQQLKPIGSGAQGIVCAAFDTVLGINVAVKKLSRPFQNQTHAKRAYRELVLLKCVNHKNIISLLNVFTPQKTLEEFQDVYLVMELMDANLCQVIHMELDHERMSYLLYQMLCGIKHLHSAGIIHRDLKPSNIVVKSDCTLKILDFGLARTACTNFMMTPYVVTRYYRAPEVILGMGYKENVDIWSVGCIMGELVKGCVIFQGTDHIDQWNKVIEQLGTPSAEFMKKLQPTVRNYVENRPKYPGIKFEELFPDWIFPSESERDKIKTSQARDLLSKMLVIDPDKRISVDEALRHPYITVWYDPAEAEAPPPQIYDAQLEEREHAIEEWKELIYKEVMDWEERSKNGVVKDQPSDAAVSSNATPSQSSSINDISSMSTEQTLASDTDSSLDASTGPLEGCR
Protocol: as §1

NEK2 = NEK2 (Homo sapiens, UniProt P51955); assay: cell-based; design: NanoBRET live-cell target engagement; % occupancy from displacement of tracer K10 on NanoLuc-kinase fusions, mean n=3; conditions: HEK293, read-out: % inhibition
Protocol: as §1

NEK4 = NEK4 (Homo sapiens, UniProt P51957); assay: cell-based; design: NanoBRET live-cell target engagement; % occupancy from displacement of tracer K10 on NanoLuc-kinase fusions, mean n=3; conditions: HEK293, read-out: % inhibition
Protocol: as §1

PTK6 = PTK6 (Homo sapiens, UniProt Q13882); assay: cell-based; design: NanoBRET live-cell target engagement; % occupancy from displacement of tracer K10 on NanoLuc-kinase fusions, mean n=3; conditions: HEK293, read-out: % inhibition
Chain of PTK6 (Q13882 whole entry, the tested form may be a part): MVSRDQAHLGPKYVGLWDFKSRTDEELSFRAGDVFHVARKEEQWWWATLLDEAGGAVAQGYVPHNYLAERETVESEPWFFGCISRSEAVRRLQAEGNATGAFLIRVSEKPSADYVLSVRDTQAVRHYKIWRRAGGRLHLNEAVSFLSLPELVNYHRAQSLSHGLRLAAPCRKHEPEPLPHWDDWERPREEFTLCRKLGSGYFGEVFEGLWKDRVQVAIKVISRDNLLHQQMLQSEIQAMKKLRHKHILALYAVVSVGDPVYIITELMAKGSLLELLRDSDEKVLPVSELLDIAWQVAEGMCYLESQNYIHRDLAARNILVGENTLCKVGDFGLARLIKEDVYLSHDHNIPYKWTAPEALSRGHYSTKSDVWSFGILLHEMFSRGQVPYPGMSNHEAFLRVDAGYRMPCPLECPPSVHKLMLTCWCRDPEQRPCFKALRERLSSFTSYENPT
Protocol: as §1

RPS6KA1 = RPS6KA1 (Homo sapiens, UniProt Q15418); assay: cell-based; design: NanoBRET live-cell target engagement; % occupancy from displacement of tracer K10 on NanoLuc-kinase fusions, mean n=3; conditions: HEK293, read-out: % inhibition
Protocol: as §1

SGK1 = SGK1 (Homo sapiens, UniProt O00141); assay: cell-based; design: NanoBRET live-cell target engagement; % occupancy from displacement of tracer K10 on NanoLuc-kinase fusions, mean n=3; conditions: HEK293, read-out: % inhibition
Protocol: as §1

Crizotinib % occupancy, 1 uM (AURKC): 48 ± 4.2%
Crizotinib % occupancy, 1 uM (AXL): 68 ± 1.5%
Crizotinib % occupancy, 1 uM (EPHA4): 53 ± 4.4%
Crizotinib % occupancy, 1 uM (EPHA1): 75 ± 2.2%
Crizotinib % occupancy, 1 uM (EPHB4): 62 ± 3.6%
Crizotinib % occupancy, 1 uM (EPHB1): 68 ± 2.0%
inhibition at 1 µM (AAK1): -14%
inhibition at 1 µM (CLK4): -19%
inhibition at 1 µM (CSNK2A1): 5%
inhibition at 1 µM (FGFR3): 14%
inhibition at 1 µM (HIPK4): -9%
inhibition at 1 µM (JNK3): -4%
inhibition at 1 µM (MAP3K11): 0%
inhibition at 1 µM (MAPK8): -16%
inhibition at 1 µM (MAPK9): -11%
inhibition at 1 µM (NEK2): 6%
inhibition at 1 µM (NEK4): -12%
inhibition at 1 µM (PTK6): -2%
inhibition at 1 µM (RPS6KA1): -6%
inhibition at 1 µM (SGK1): -1%
SMILES: C[C@@H](Oc1cc(-c2cnn(C3CCNCC3)c2)cnc1N)c1c(Cl)ccc(F)c1Cl [crizotinib]
